Source: PubChem BioAssay AID1963866 (Molecular Pharmacology Branch, DTP, NCI, 2024)

Tested on: PDC KRAS tumor spheroids with HUVEC/MSC, viability
Assay: Anticancer human tumor 349418-098-R-PDC patient-derived lung adenocarcinoma cell line growth inhibition [KRAS2]
Conditions: for IC50: curve of first compound; for viability, T/C: stronger effect = lower value
Summary of the method: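 KRAS-mutant tumor cells were grown as spheroids with HUVEC endothelial cells and human MSCs as stroma. Targeted agents were tested alone and with KRAS pathway inhibitors. Doses started at or near clinical Cmax, or 10 microM, descending half-log.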

[1] = second compound 0.0316 µM, first compound 0.0316 µM
[2] = second compound 0.0316 µM, first compound 0.1 µM
[3] = second compound 0.0316 µM, first compound 0.316 µM
[4] = second compound 0.0316 µM, first compound 1 µM
[5] = second compound 0.0316 µM, first compound 3.16 µM
[6] = second compound 0.1 µM, first compound 0.0316 µM
[7] = second compound 0.1 µM, first compound 0.1 µM
[8] = second compound 0.1 µM, first compound 0.316 µM
[9] = second compound 0.1 µM, first compound 1 µM
[10] = second compound 0.1 µM, first compound 3.16 µM
[11] = second compound 0.316 µM, first compound 0.0316 µM
[12] = second compound 0.316 µM, first compound 0.1 µM
[13] = second compound 0.316 µM, first compound 0.316 µM
[14] = second compound 0.316 µM, first compound 1 µM
[15] = second compound 0.316 µM, first compound 3.16 µM
[16] = second compound 1 µM, first compound 0.0316 µM
[17] = second compound 1 µM, first compound 0.1 µM
[18] = second compound 1 µM, first compound 0.316 µM
[19] = second compound 1 µM, first compound 1 µM
[20] = second compound 1 µM, first compound 3.16 µM
[21] = second compound 3.16 µM, first compound 0.0316 µM
[22] = second compound 3.16 µM, first compound 0.1 µM
[23] = second compound 3.16 µM, first compound 0.316 µM
[24] = second compound 3.16 µM, first compound 1 µM
[25] = second compound 3.16 µM, first compound 3.16 µM
[26] = second compound 0.0316 µM, first compound 10 µM
[27] = second compound 0.1 µM, first compound 10 µM
[28] = second compound 0.316 µM, first compound 10 µM
[29] = second compound 1 µM, first compound 10 µM
[30] = second compound 3.16 µM, first compound 10 µM
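Further: spheroids exposed to compounds for seven days before readout.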

Row | Structure (SMILES) | IC50 (second compound 0.0316 µM) | IC50 (second compound 0.1 µM) | IC50 (second compound 0.316 µM) | IC50 (second compound 1 µM) | IC50 (second compound 3.16 µM) | viability, T/C [1] | viability, T/C [2] | viability, T/C [3] | viability, T/C [4] | viability, T/C [5] | viability, T/C [6] | viability, T/C [7] | viability, T/C [8] | viability, T/C [9] | viability, T/C [10] | viability, T/C [11] | viability, T/C [12] | viability, T/C [13] | viability, T/C [14] | viability, T/C [15] | also measured
1 | CC1COCCN1c1cc(-c2ccnn2C)c2ccnc(-c3ccn[nH]3)c2n1 (stereo not given) + C=CC(=O)N1CCN(c2nc(OCC3CCCN3C)nc3c2CCN(c2cccc4cccc(C)c24)C3)CC1CC#N | 29.8 nM | 31.1 nM | 23.8 nM | < 10 nM | < 10 nM | 47.6% | 9.45% | 5.83% | 4.78% | 4.54% | 49.1% | 9.48% | 5.64% | 4.53% | 3.65% | 33% | 5.66% | 4.96% | 4.7% | 4.39% | viability, T/C (second compound 0.0316 µM, first compound 0.01 µM): 94.1%; viability, T/C (second compound 0.1 µM, first compound 0.01 µM): 112%; viability, T/C (second compound 0.316 µM, first compound 0.01 µM): 102%; viability, T/C (second compound 1 µM, first compound 0.01 µM): 43.6%; viability, T/C [16]: 4.15%; viability, T/C [17]: 3.41%; viability, T/C [18]: 4.26%; viability, T/C [19]: 3.79%; viability, T/C [20]: 3.79%; viability, T/C (second compound 3.16 µM, first compound 0.01 µM): 0.1%; viability, T/C [21]: 0.21%; viability, T/C [22]: 0.07%; viability, T/C [23]: 0.06%; viability, T/C [24]: 0.07%; viability, T/C [25]: 0.12%
2 | CC1OCC2(CCN(c3cnc(Sc4ccnc(N)c4Cl)c(N)n3)CC2)C1N (stereo not given) + C=CC(=O)N1CCN(c2nc(OCC3CCCN3C)nc3c2CCN(c2cccc4cccc(C)c24)C3)CC1CC#N | > 10000 nM | > 10000 nM | > 10000 nM | 6510 nM | < 31.6 nM | 122% | 95.1% | 92.8% | 96.8% | 94.1% | 108% | 93.6% | 79.8% | 89.4% | 78% | 99% | 112% | 97.8% | 98.5% | 96.8% | viability, T/C [26]: 68.7%; viability, T/C [27]: 83.6%; viability, T/C [28]: 95.1%; viability, T/C [16]: 71%; viability, T/C [17]: 69.4%; viability, T/C [18]: 62.9%; viability, T/C [19]: 58.3%; viability, T/C [20]: 50.2%; viability, T/C [29]: 49.5%; viability, T/C [21]: 0.15%; viability, T/C [22]: 0.15%; viability, T/C [23]: 0.13%; viability, T/C [24]: 0.14%; viability, T/C [25]: 0.14%; viability, T/C [30]: 0.26%
3 | CCNC(=O)CC1N=C(c2ccc(Cl)cc2)c2cc(OC)ccc2-n2c(C)nnc21 (stereo not given) + C=CC(=O)N1CCN(c2nc(OCC3CCCN3C)nc3c2CCN(c2cccc4cccc(C)c24)C3)CC1CC#N | 122 nM | 95.7 nM | 186 nM | 47.7 nM | < 31.6 nM | 102% | 50.9% | 34.2% | 8.72% | 1.74% | 93.1% | 48.1% | 21.8% | 9.94% | 1.6% | 101% | 70.5% | 30.6% | 16.6% | 4.31% | viability, T/C [26]: 0.85%; viability, T/C [27]: 0.66%; viability, T/C [28]: 1.58%; viability, T/C [16]: 62.9%; viability, T/C [17]: 26.6%; viability, T/C [18]: 10.7%; viability, T/C [19]: 4.52%; viability, T/C [20]: 0.59%; viability, T/C [29]: 2.47%; viability, T/C [21]: 0.12%; viability, T/C [22]: 0.1%; viability, T/C [23]: 0.09%; viability, T/C [24]: 0.08%; viability, T/C [25]: 0.08%; viability, T/C [30]: 0.13%
4 | Cn1nccc1Nc1nccc(-c2cc3c(s2)C(C)(C)N(CCN2CCOCC2)C3=O)n1 + C=CC(=O)N1CCN(c2nc(OCC3CCCN3C)nc3c2CCN(c2cccc4cccc(C)c24)C3)CC1CC#N | 44.7 nM | 59.7 nM | 49.3 nM | < 31.6 nM | < 31.6 nM | 57.1% | 33.1% | 20.7% | 8.51% | 7.52% | 70.2% | 31.8% | 21.5% | 8.37% | 7.54% | 62.2% | 31% | 14.8% | 9.55% | 7.33% | viability, T/C [26]: 5.99%; viability, T/C [27]: 5.51%; viability, T/C [28]: 4.36%; viability, T/C [16]: 41.5%; viability, T/C [17]: 32.5%; viability, T/C [18]: 13.6%; viability, T/C [19]: 7.03%; viability, T/C [20]: 4.51%; viability, T/C [29]: 3.02%; viability, T/C [21]: 0.13%; viability, T/C [22]: 0.09%; viability, T/C [23]: 0.07%; viability, T/C [24]: 0.07%; viability, T/C [25]: 0.07%; viability, T/C [30]: 0.17%
